According to US20090156577A1, “7-AMINO ALKYLIDENYL-HETEROCYCLIC QUINOLONES AND NAPHTHYRIDONES” (priority 2004, published 2009):
Values after ≈ are worked out from the molar mass of the structure shown. Where a name gives a salt, the structure may show the parent alone. Read-outs that look alike come from different tables or passages of the source.

Tested on: pathogenic bacteria
Assay: MIC by microdilution broth method (NCCLS M7-A4), in vitro antibacterial activity
Format: cell-based
Experimental: Minimal inhibitory concentration (MIC) has been an indicator of in vitro antibacterial activity widely used in the art. The in vitro antimicrobial activity of the compounds was determined by the microdilution broth method following the test method from the National Committee for Clinical Laboratory Standards (NCCLS). This method is described in the NCCLS Document M7-A4, Vol. 17, No. 2, “Methods for Dilution Antimicrobial Susceptibility Test for Bacteria that Grow Aerobically—Fourth Edition”, which is incorporated herein by reference.
In this method two-fold serial dilutions of drug in cation adjusted Mueller-Hinton broth are added to wells in microdilution trays. The test organisms are prepared by adjusting the turbidity of actively growing broth cultures so that the final concentration of test organism after it is added to the wells is approximately 5×10^4 CFU/well.
Following inoculation of the microdilution trays, the trays are incubated at 35° C. for 16-20 hours and then read. […] The amount of growth in the wells containing the test compound is compared with the amount of growth in the growth-control wells (no test compound) used in each tray. As set forth in Table 5, compounds of the present invention were tested against a variety of pathogenic bacteria resulting in a range of activities depending on the organism tested.

[1] = Staphylococcus aureus, Organism A: Staphylococcus aureus OC4172, read-out: MIC
[2] = Streptococcus pneumoniae, ATCC49619, Organism E: Streptococcus pneumoniae ATCC 49619, read-out: MIC
[3] = Streptococcus pneumoniae, Organism B: fluoroquinolone-resistant clinical isolate of Streptococcus pneumoniae (QRDR amino acid substitutions)
[4] = Streptococcus pneumoniae, Organism C: fluoroquinolone-resistant clinical isolate of Streptococcus pneumoniae (QRDR amino acid substitutions)
[5] = Streptococcus pneumoniae, Organism D: fluoroquinolone-resistant clinical isolate of Streptococcus pneumoniae (QRDR amino acid substitutions)

Structure (SMILES)	MIC [1]	MIC [2]	MIC [3]	MIC [4]	MIC [5]
NCC(F)=C1CCN(c2nc3c(cc2F)c(=O)c(C(=O)O)cn3C2CC2)CC1 [Compound 1, 7-[4-(2-Amino-1-fluoro-ethylidene)-piperidin-1-yl]-1-cyclopropyl-6-fluoro-4-oxo-1,4-dihydro-[1,8]naphthyridine-3-carboxylic acid]	0.03 µg/mL (≈ 0.0768 µM)	0.12 µg/mL (≈ 0.307 µM)	2 µg/mL (≈ 5.12 µM)	0.5 µg/mL (≈ 1.28 µM)	1 µg/mL (≈ 2.56 µM)
CC(CN)=C1CCN(c2nc3c(cc2F)c(=O)c(C(=O)O)cn3C2CC2)CC1 [Compound 2, 7-[4-(2-Amino-1-methyl-ethylidene)-piperidin-1-yl]-1-cyclopropyl-6-fluoro-4-oxo-1,4-dihydro-[1,8]naphthyridine-3-carboxylic acid]	0.06 µg/mL (≈ 0.155 µM)	0.12 µg/mL (≈ 0.311 µM)	0.25 µg/mL (≈ 0.647 µM)	1 µg/mL (≈ 2.59 µM)	1 µg/mL (≈ 2.59 µM)
NCC(Cl)=C1CCN(c2nc3c(cc2F)c(=O)c(C(=O)O)cn3C2CC2)CC1 [Compound 3, 7-[4-(2-Amino-1-chloro-ethylidene)-piperidin-1-yl]-1-cyclopropyl-6-fluoro-4-oxo-1,4-dihydro-[1,8]naphthyridine-3-carboxylic acid]	0.06 µg/mL (≈ 0.147 µM)	0.12 µg/mL (≈ 0.295 µM)	1 µg/mL (≈ 2.46 µM)	0.25 µg/mL (≈ 0.614 µM)	1 µg/mL (≈ 2.46 µM)
NCC(F)=C1CCN(c2nc3c(cc2F)c(=O)c(C(=O)O)cn3-c2ccc(F)cc2F)CC1 [Compound 4, 7-[4-(2-Amino-1-fluoro-ethylidene)-piperidin-1-yl]-1-(2,4-difluoro-phenyl)-6-fluoro-4-oxo-1,4-dihydro-[1,8]naphthyridine-3-carboxylic acid]	0.06 µg/mL (≈ 0.13 µM)	0.25 µg/mL (≈ 0.541 µM)	–	1 µg/mL (≈ 2.16 µM)	2 µg/mL (≈ 4.33 µM)
NCC(F)=C1CCN(c2cc3c(cc2F)c(=O)c(C(=O)O)cn3C2CC2)CC1 [Compound 5, 7-[4-(2-Amino-1-fluoro-ethylidene)-piperidin-1-yl]-l - cyclopropyl-6-fluoro-4-oxo-1,4-dihydro-quinoline-3-carboxylic acid trifluoroacetic acid salt]	0.03 µg/mL	–	–	1 µg/mL	–
COc1c(N2CCC(=C(C)CN)CC2)c(F)cc2c(=O)c(C(=O)O)cn(C3CC3)c12 [Compound 6, 7-[4-(2-Amino-1-methyl-ethylidene)-piperidin-1-yl]-1-cyclopropyl-6-fluoro-8-methoxy-4-oxo-1,4-dihydro-quinoline-3-carboxylic acid]	0.03 µg/mL (≈ 0.0722 µM)	0.06 µg/mL (≈ 0.144 µM)	–	0.5 µg/mL (≈ 1.2 µM)	–
COc1c(N2CCC(=C(Cl)CN)CC2)c(F)cc2c(=O)c(C(=O)O)cn(C3CC3)c12 [Compound 7, 7-[4-(2-Amino-1-chloro-ethylidene)-piperidin-1-yl]-1-cyclopropyl-6-fluoro-8-methoxy-4-oxo-1,4-dihydro-quinoline-3-carboxylic Acid]	0.015 µg/mL (≈ 0.0344 µM)	0.06 µg/mL (≈ 0.138 µM)	0.06 µg/mL (≈ 0.138 µM)	0.12 µg/mL (≈ 0.275 µM)	0.12 µg/mL (≈ 0.275 µM)
CC1COc2c(N3CCC(=C(F)CN)CC3)c(F)cc3c(=O)c(C(=O)O)cn1c23 (stereo not shown) [Compound 8, 9-[4-(2-Amino-1-fluoro-ethylidene)-piperidin-1-yl]-8-fluoro-3-methyl-6-oxo-2,3-dihydro-6H-1-oxa-3a-aza-phenalene-5-carboxylic acid]	0.25 µg/mL (≈ 0.617 µM)	0.5 µg/mL (≈ 1.23 µM)	2 µg/mL (≈ 4.93 µM)	8 µg/mL (≈ 19.7 µM)	8 µg/mL (≈ 19.7 µM)
CC(CN)=C1CCN(c2c(F)cc3c(=O)c(C(=O)O)cn4c3c2OCC4C)CC1 (stereo not shown) [Compound 9, 9-[4-(2-Amino-1-methyl-ethylidene)-piperidin-1-yl]-8-fluoro-3-methyl-6-oxo-2,3-dihydro-6H-1-oxa-3a-aza-phenalene-5-carboxylic acid]	0.5 µg/mL (≈ 1.25 µM)	1 µg/mL (≈ 2.49 µM)	4 µg/mL (≈ 9.96 µM)	> 16 µg/mL	> 16 µg/mL
COc1c(N2CCC(=C(F)CN)CC2)ccc2c(=O)c(C(=O)O)cn(C3CC3)c12 [Compound 10, 7-[4-(2-Amino-1-fluoro-ethylidene)-piperidin-1-yl]-1-cyclopropyl-8-methoxy-4-oxo-1,4-dihydro-quinoline-3-carboxylic acid]	0.03 µg/mL (≈ 0.0747 µM)	0.12 µg/mL (≈ 0.299 µM)	–	0.5 µg/mL (≈ 1.25 µM)	1 µg/mL (≈ 2.49 µM)
